Experimental data taken from patent US20210045385A1, “PYRIDAZINONE-SUBSTITUTED KETOXIMES AS HERBICIDES” (FMC Corporation, priority 2018, published 2021).

Tests used:
Type in all cases: in vivo
[1] = system: rice (Oryza sativa); assay: Test D flooded paddy test, visual plant response rating; conditions: 250 g ai/ha, scale 0 to 100 (0 no effect, 100 complete control), 13 to 15 d
Outline: (§1)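 Rating is visual, on a 0 (no effect) to 100 (complete control) scale versus controls, taken 13 to 15 d after treatment in a greenhouse. Treatment went into paddy water kept 3 cm above the soil surface, with plants at the 2-leaf stage.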

[2] = system: sedge umbrella (small-flower umbrella sedge, Cyperus difformis); assay: as above; conditions: 250 g ai/ha, scale 0 to 100 (0 no effect, 100 complete control), 13 to 15 d
Outline: as §1

[3] = system: duck salad (Heteranthera limosa); assay: as above; conditions: 250 g ai/ha, scale 0 to 100 (0 no effect, 100 complete control), 13 to 15 d
Outline: as §1

[4] = system: barnyardgrass (Echinochloa crus-galli); assay: as above; conditions: 250 g ai/ha, scale 0 to 100 (0 no effect, 100 complete control), 13 to 15 d
Outline: as §1

[5] = system: ragweed (common ragweed, Ambrosia artemisiifolia); assay: Test C postemergence, visual plant response rating
Outline: (§2)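 Visual injury on a 0 (no effect) to 100 (complete control) scale versus untreated controls, scored approximately 10 d after treatment under greenhouse conditions. Treatments used surfactant-containing non-phytotoxic solvent formulations, sprayed onto loam–sand soil preemergence or onto one- to two-leaf plants 2–10 cm tall postemergence.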

[6] = system: pigweed (Amaranthus retroflexus); assay: Test C postemergence, visual plant response rating
Outline: as §2

[7] = system: galium (catchweed bedstraw, Galium aparine); assay: Test C postemergence, visual plant response rating
Outline: as §2

[8] = system: Italian ryegrass (Lolium mutiflorum); assay: Test C postemergence, visual plant response rating
Outline: as §2

[9] = system: blackgrass (Alopecurus myosuroides); assay: Test C postemergence, visual plant response rating
Outline: as §2

[10] = system: corn (Zea mays); assay: Test C postemergence, visual plant response rating
Outline: as §2

[11] = system: wheat (Triticum aestivum); assay: Test C postemergence, visual plant response rating
Outline: as §2

[12] = system: kochia (Bassia scoparia); assay: Test C postemergence, visual plant response rating
Outline: as §2

[13] = system: barnyardgrass (Echinochloa crus-galli); assay: Test C postemergence, visual plant response rating
Outline: as §2

[14] = system: foxtail, giant (giant foxtail, Setaria faberi); assay: Test C postemergence, visual plant response rating
Outline: as §2

[15] = system: ragweed (common ragweed, Ambrosia artemisiifolia); assay: Test C preemergence, visual plant response rating; conditions: Test C, 0 is no effect, 100 is complete control
Outline: as §2

[16] = system: pigweed (Amaranthus retroflexus); assay: Test C preemergence, visual plant response rating; conditions: Test C, 0 is no effect, 100 is complete control
Outline: as §2

[17] = system: Italian ryegrass (Lolium mutiflorum); assay: Test C preemergence, visual plant response rating; conditions: Test C, 0 is no effect, 100 is complete control
Outline: as §2

[18] = system: kochia (Bassia scoparia); assay: Test C preemergence, visual plant response rating; conditions: Test C, 0 is no effect, 100 is complete control
Outline: as §2

[19] = system: barnyardgrass (Echinochloa crus-galli); assay: Test C preemergence, visual plant response rating; conditions: Test C, 0 is no effect, 100 is complete control
Outline: as §2

[20] = system: foxtail, giant (giant foxtail, Setaria faberi); assay: Test C preemergence, visual plant response rating; conditions: Test C, 0 is no effect, 100 is complete control
Outline: as §2

[21] = Test C, postemergence, 125 g ai/ha

| Compound | Plant response rating, Rice (Flood) [1] | Plant response rating, Sedge, Umbrella (Flood) [2] | Plant response rating, Ducksalad (Flood) [3] | Plant response rating, Barnyardgrass (Flood) [4] | Ragweed plant response rating (0 to 100 scale) ([5]; Postemergence, 31 g ai/ha) | Ragweed plant response rating (0 to 100 scale) [5, 21] | Pigweed plant response rating (0 to 100 scale) ([6]; Postemergence, 31 g ai/ha) | Pigweed plant response rating (0 to 100 scale) [6, 21] | Galium plant response rating (0 to 100 scale) ([7]; Postemergence, 31 g ai/ha) | Galium plant response rating (0 to 100 scale) [7, 21] | Ryegrass, Italian plant response rating (0 to 100 scale) ([8]; Postemergence, 31 g ai/ha) | Ryegrass, Italian plant response rating (0 to 100 scale) [8, 21] | Blackgrass plant response rating (0 to 100 scale) ([9]; Postemergence, 31 g ai/ha) | Blackgrass plant response rating (0 to 100 scale) [9, 21] | Corn plant response rating (0 to 100 scale) ([10]; Postemergence, 31 g ai/ha) | Corn plant response rating (0 to 100 scale) [10, 21] | Wheat plant response rating (0 to 100 scale) ([11]; Postemergence, 31 g ai/ha) | Wheat plant response rating (0 to 100 scale) [11, 21] | Kochia plant response rating (0 to 100 scale) ([12]; Postemergence, 31 g ai/ha) | Kochia plant response rating (0 to 100 scale) [12, 21] | other results |
| --- | --- | --- | --- | --- | --- | --- | --- | --- | --- | --- | --- | --- | --- | --- | --- | --- | --- | --- | --- | --- | --- |
| CO/N=C(\c1c(O)cnn(C)c1=O)c1ccc(F)c2ccccc12 [Compound 303] | 0 | 0 | 0 | 0 | 10 | 20 | 40 | 60 | 30 | 70 | 20 | 40 | 0 | 0 | 0 | 0 | 0 | 0 | 40 | 50 | Barnyardgrass plant response rating (0 to 100 scale) ([13]; Postemergence, 31 g ai/ha): 0; Barnyardgrass plant response rating (0 to 100 scale) [13, 21]: 10; Foxtail, Giant plant response rating (0 to 100 scale) ([14]; Postemergence, 31 g ai/ha): 0; Foxtail, Giant plant response rating (0 to 100 scale) [14, 21]: 20; Ragweed plant response rating (0 to 100 scale) ([15]; 31 g ai/ha): 0; Ragweed plant response rating (0 to 100 scale) ([15]; 125 g ai/ha): 20; Pigweed plant response rating (0 to 100 scale) ([16]; 31 g ai/ha): 10; Pigweed plant response rating (0 to 100 scale) ([16]; 125 g ai/ha): 30; Ryegrass, Italian plant response rating (0 to 100 scale) ([17]; 31 g ai/ha): 0; Ryegrass, Italian plant response rating (0 to 100 scale) ([17]; 125 g ai/ha): 20; Kochia plant response rating (0 to 100 scale) ([18]; 31 g ai/ha): 0; Kochia plant response rating (0 to 100 scale) ([18]; 125 g ai/ha): 10; Barnyardgrass plant response rating (0 to 100 scale) ([19]; 31 g ai/ha): 0; Barnyardgrass plant response rating (0 to 100 scale) ([19]; 125 g ai/ha): 0; Foxtail, Giant plant response rating (0 to 100 scale) ([20]; 31 g ai/ha): 0; Foxtail, Giant plant response rating (0 to 100 scale) ([20]; 125 g ai/ha): 10 |
| CO/N=C(/c1c(O)cnn(C)c1=O)c1ccc(F)c2ccccc12 [Compound 304] | 0 | 0 | 0 | 0 | 0 | 10 | 50 | 80 | 10 | 80 | 20 | 60 | 0 | 0 | 10 | 20 | 0 | 0 | 30 | 50 | Barnyardgrass plant response rating (0 to 100 scale) ([13]; Postemergence, 31 g ai/ha): 0; Barnyardgrass plant response rating (0 to 100 scale) [13, 21]: 0; Foxtail, Giant plant response rating (0 to 100 scale) ([14]; Postemergence, 31 g ai/ha): 0; Foxtail, Giant plant response rating (0 to 100 scale) [14, 21]: 20; Ragweed plant response rating (0 to 100 scale) ([15]; 31 g ai/ha): 0; Ragweed plant response rating (0 to 100 scale) ([15]; 125 g ai/ha): 40; Pigweed plant response rating (0 to 100 scale) ([16]; 31 g ai/ha): 10; Pigweed plant response rating (0 to 100 scale) ([16]; 125 g ai/ha): 20; Ryegrass, Italian plant response rating (0 to 100 scale) ([17]; 31 g ai/ha): 0; Ryegrass, Italian plant response rating (0 to 100 scale) ([17]; 125 g ai/ha): 20; Kochia plant response rating (0 to 100 scale) ([18]; 31 g ai/ha): 0; Kochia plant response rating (0 to 100 scale) ([18]; 125 g ai/ha): 0; Barnyardgrass plant response rating (0 to 100 scale) ([19]; 31 g ai/ha): 0; Barnyardgrass plant response rating (0 to 100 scale) ([19]; 125 g ai/ha): 0; Foxtail, Giant plant response rating (0 to 100 scale) ([20]; 31 g ai/ha): 0; Foxtail, Giant plant response rating (0 to 100 scale) ([20]; 125 g ai/ha): 10 |
